In PMC7315563, “Bioactive fluorenes. Part III: 2,7-dichloro-9H-fluorene-based thiazolidinone and azetidinone analogues as anticancer and antimicrobial against multidrug resistant strains agents” (BMC Chemistry, 2020):
In brackets after ≈: the same amount, converted by molar mass.

How the values were obtained:
A549 cells = test: FACS analysis, Annexin V and PI staining; type: cell-based, human; conditions: 24 h, 5g 500, 6c 85, 6d 117, 6k 200 µg/mL
Experimental: (§1) To uncover the mechanism of cell death for the compounds 5h, 6c, 6d and 6k on WI-38, A549, and MDA-MB-231 cells; Annexin v and propedium Iodide (PI) were used. In brief, WI-38, A549, MDA-MB-231 cells were cultured in 10 tissue culture dish with initial number 4 × 10^5 cell/Ml in RPMI growth media. In the following day, cells were treated with 6c, 6d and 6k as the following; (0.0, 500 μg/mL form each drug for WI-38 treatment, 0.0, 85, 117 and 200 μg/mL; respectively, for […] and 0.0, 250 from each for MDA-MB-231 cells treatment). After 24 h incubations, cells were washed and trypsinized and suspended in 50 μL 1X Annexin v binding buffer followed by adding 5 μL FITC Annexin V and incubated for 15 min at room temperature then 5 μL of PI were added to each tube. Finally, 400 μL of 1X Annexin v binding buffer were added to each tube and analyzed using Becton-Dickinson FACS Caliber.

WI-38 cells = test: FACS analysis, Annexin V and PI staining; type: cell-based, human; conditions: 24 h, 5g 1000 µg/mL, 6c, 6d, 6k 500 µg/mL
Experimental: as §1

[1] = tested on: Escherichia coli (E. coli), multidrug resistant clinical isolate; test: agar well diffusion assay; type: cell-based; conditions: 24 h, 500 µg/mL of tested compound
In short: (§2)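 Multidrug-resistant clinical isolates swabbed on Mueller–Hinton agar at about 1–5 × 10^5 CFU/mL; 0.5 cm wells received 50 μL compound at 500 μg/mL in 1% DMSO. Incubation 24 h, 37 °C for bacteria and C. albicans, 25 °C for Aspergillus; inhibition zone diameter measured in mm.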

E. coli = test: MIC by broth microdilution method (resazurin end point); type: cell-based; conditions: Escherichia coli, 24 h at 37 °C
Experimental: (§3) Determination of Minimum inhibitory concentrations (MIC) of flourene derivatives was done using broth microdilution method. The procedure involved preparation of twofold dilutions of the fluorene derivatives ranging from (500–7.8 μg/mL) in sterile Mueller–Hinton broth inside the wells of 96-well microplate (Sarstedt, Germany). The inoculums of test strains prepared from fresh overnight cultures were adjusted to 0.5 McFarland standards, which equals to 1–2 × 10^8 CFU/mL for bacteria, the procedure was done according to CLSI 2012 [42]. […] For this assay the positive control agents were vancomycin (range: 0.7–50 μg/mL), gentamicin (range: 0.15–10 μg/mL) and the negative control was 1% DMSO.
(§4) For proper determination of the MIC end point resazurin dye has been used. A stock solution of resazurin sodium salt powder (Titan Biotech) was prepared at 0.02% (wt/vol) in distilled water, sterilized by filtration through a […] filter into a sterile light protected container then stored protected from light at 4 °C for up to 1 week, or at − […] for long term use, then 10–15% resazurin solution of the total volume in wells was added to each well and incubation for 1–4 h at 37 °C was done. A change in color from blue to pink indicates the growth of bacteria, and MIC was defined as the lowest concentration of the drug that prevented this change in color.

K. pneumoniae = test: as above; type: cell-based; conditions: Klebsiella pneumoniae, 24 h at 37 °C
Experimental: as §3, §4

[2] = tested on: Streptococcus pneumoniae (S. pneumoniae), multidrug resistant clinical isolate; test: agar well diffusion assay; type: cell-based; conditions: S. pneumoniae; 500 µg/mL of tested compound; 24 h
In short: as §2

[3] = tested on: methicillin-resistant Staphylococcus aureus (MRSA); test: agar well diffusion assay; type: cell-based; conditions: 500 µg/mL of tested compound, 24 h
In short: as §2

P. aeruginosa = test: MIC by broth microdilution method (resazurin end point); type: cell-based; conditions: Pseudomonas aeruginosa, 24 h at 37 °C
Experimental: as §3, §4

| MIC (E. coli) | MIC (K. pneumoniae) | MIC (P. aeruginosa) | SMILES | apoptotic cell death (of total cell number) (A549 cells) | necrotic cell death (of total cell number) (A549 cells) | apoptotic cell death (of total cell number) (WI-38 cells) | necrotic cell death (of total cell number) (WI-38 cells) | zone of inhibition at 500 µg/mL [1] | Mean zone of inhibition [2] | Mean zone of inhibition [3] |
| --- | --- | --- | --- | --- | --- | --- | --- | --- | --- | --- |
| 62.5 µg/mL (≈ 117 µM) | 125 µg/mL (≈ 235 µM) | – | O=C1C(Cl)C(c2ccc(Cl)cc2)N1c1nc(-c2cc(Cl)cc3c2-c2ccc(Cl)cc2C3)cs1 (centres unmarked) [6c, 3-Chloro-4-(4-chlorophenyl)-1-(4-(2,7-dichloro-9H-fluoren-4-yl)thiazol-2-yl)azetidin-2-one] | 27.32% | 2.1% | 1.22% | 14.5% | 15 mm | – | – |
| – | – | – | O=C1C(Cl)C(c2ccc(Br)cc2)N1c1nc(-c2cc(Cl)cc3c2-c2ccc(Cl)cc2C3)cs1 (centres unmarked) [6d, 4-(4-Bromophenyl)-3-chloro-1-(4-(2,7-dichloro-9H-fluoren-4-yl)thiazol-2-yl)azetidin-2-one] | 36.3% | 2% | 1.34% | 14.1% | – | no activity | no activity |
| 31.2 µg/mL (≈ 62 µM) | – | 125 µg/mL (≈ 248 µM) | O=C1C(Cl)C(c2cccs2)N1c1nc(-c2cc(Cl)cc3c2-c2ccc(Cl)cc2C3)cs1 (centres unmarked) [6k, 3-Chloro-1-(4-(2,7-dichloro-9H-fluoren-4-yl)thiazol-2-yl)-4-(thiophen-2-yl)azetidin-2-one] | 32.67% | 1.71% | 0.61% | 9.93% | 14 mm | – | – |
